Test [1] has as its system Astroglial cells derived from the mouse forebrain. Kind of test: Synthesis-stimulating activity on NGF (NGF level in culture medium by enzyme immunoassay). The class given is cell-based. Particulars: Mus musculus, 24 h, ratio to DMSO control = 1.0; for fold induction at 2 µg/mL / fold induction at 50 µg/mL: 24 hours, read-out: Synthesis-Stimulating Activity on NGF. As for the experimental part:
The activity of accelerating secretion of NGF was evaluated by the following method.
Each compound shown in Table 1 was dissolved in dimethylsulfoxide (DMSO) to adjust the concentration in the range of 2 mg/ml to 10 mg/ml.
Astroglial cells derived from the mouse forebrain (cells that synthesize and secrete NGF)
Astroglial cells obtained from the mouse forebrain were cultured into 8 x 10⁵ cells/ml in Dulbecco's modified Eagle's medium obtained from Gibco, glucose-rich, containing 20% fetal calf serum, 100 units/ml of penicillin and 100 µg/ml of streptomycin. A 0.1 ml/well aliquot was inoculated on a 96-well plate obtained from Falcon and having an area of 0.32 cm² per well and cultured at 37°C in an atmosphere of 5% CO₂. The culture medium was removed 72 hours later and instead, a 0.1 ml/well aliquot of fresh Dulbecco's modified Eagle's medium containing 0.5% bovine albumin powders obtained from Armour, 100 units/ml of penicillin and 100 µg/ml of streptomycin was supplemented to the system followed by culturing at 37°C in 5% CO₂. The above medium containing the compound each having various concentrations was exchanged 72 hours later. For the purpose of comparison, the medium which contains only DMSO was also prepared (control).
The synthesis-stimulating activity on NGF by the compound of the present invention is shown in terms of a ratio when the NGF level in the control containing only DMSO was made 1.0.

Test [2] relates to Cerebral cortical neuronal cells from an 18-day-old rat embryo. Description: Test on neurotrophic activity (living cells counted by fluorescein diacetate fluorescence, with or without hypoxic load). The class given is cell-based. As for the experimental part:
The neurotrophic activity was determined by the following method. Each compound was dissolved in DMSO to adjust the concentration in the range of 2 mg/ml to 10 mg/ml. Cerebral cortical neuronal cells from an 18-day-old rat embryo […] After 24 hours of incubation, the culture medium was removed and a 0.5 ml/well aliquot of a serum-free fresh DF medium containing the respective compounds having various concentrations, 5 µg/ml of transferrin, 5 µg/ml of insulin and 20 pmoles/ml of progesterone was supplemented to the system. For the purpose of comparison, the medium containing only DMSO was added was also prepared. At this stage, the two same plates were used. After 72 hours of incubation in various medium, hypoxia was loaded on one plate by reducing the concentration of oxygen to the minimum concentration of 1% using a N₂-O₂-CO₂ incubator (manufactured by Tabai, Model BNP-100) and culturing for 4 hours under the conditions. Another plate was cultured in an atmosphere of 5% CO₂ and 95% air, without hypoxic load. After the incubation was continued for further 48 hours, living cells were counted. The culture medium was removed and fluorescein diacetate (FDA) reagent was reacted. After washing with phosphate buffer, pH 7.4, the fluorescent intensity (E x 485/Em 530) was measured by CytoFlour^TM 2300, manufactured by Millipore.

[3] abbreviates: no hypoxic load, ratio of fluorescent intensity to DMSO control = 1.0, read-out: Neurotrophic Activity No Hypoxic Load.
The mark [4] stands for this setting: 4 h, hypoxic load (1% oxygen, 4 hours), ratio of fluorescent intensity to DMSO control = 1.0, read-out: Neurotrophic Activity Hypoxic Load.

Read-outs that look alike come from different tables or passages of the source.

As to `CCCCCCCCCc1cc[n+](Cc2ccc(-c3cc(-c4ccccn4)nc(-c4ccccn4)c3)cc2)cc1` [Compound 26, 4-Nonyl-1-[4-(2,2':6',2''-terpyridin-4'-yl)phenylmethyl]pyridinium bromide], in test [1], the fold induction at 20 µg/mL came to 3 and the fold induction at 100 µg/mL turned out to be 3. Besides, in test [2] (setting [3]), the viability at 2 µg/mL amounted to 160% and the viability at 10 µg/mL stood at 140%. Also, in test [2] (setting [4]), the viability at 2 µg/mL was 140% and the viability at 10 µg/mL was determined as 130%.

With `CC(C)c1ccc(-c2cc(-c3ccccn3)nc(-c3ccccn3)c2)cc1` [Compound 8, 4'-(4-Isopropylphenyl)-2,2':6',2''-terpyridine], in test [1], the fold induction at 2 µg/mL came to 1.7, the fold induction at 10 µg/mL was determined as 3.2 and the fold induction at 50 µg/mL came to 2.4.

For the molecule `C[N+](C)(C)Cc1ccc(-c2cc(-c3ccccn3)nc(-c3ccccn3)c2)cc1` [Compound 23, N,N,N-Trimethyl-N-[4-(2,2':6',2''-terpyridin-4'-yl)phenylmethyl]ammonium bromide], in test [1], the fold induction at 10 µg/mL worked out at 3.2 and the fold induction at 100 µg/mL was found to be 1.3. Also, in test [1] (30 µg/ml), the fold induction at 30 µg/mL was 5.6. Also, in test [2] (setting [3]), the viability at 2 µg/mL is 250% and the viability at 10 µg/mL is 130%. In test [2] (setting [4]), the viability at 2 µg/mL is 300% and the viability at 10 µg/mL stood at 160%.

Regarding `CCCCCCCCC(CCCCCCCC)c1cc[n+](Cc2ccc(-c3cc(-c4ccccn4)nc(-c4ccccn4)c3)cc2)cc1` [Compound 28, 4-(1-Octylnonyl)-1-[4-(2,2':6',2''-terpyridin-4'-yl)phenylmethyl]pyridinium bromide], in test [1], the fold induction at 20 µg/mL is 3.6 and the fold induction at 100 µg/mL came out at 2.5. Besides, in test [2] (setting [3]), the viability at 2 µg/mL came to 260% and the viability at 10 µg/mL amounted to 130%. In addition, in test [2] (setting [4]), the viability at 2 µg/mL amounted to 310% and the viability at 10 µg/mL was 380%.

In the case of `O=[N+]([O-])c1cccc(-c2cc(-c3ccccn3)nc(-c3ccccn3)c2)c1` [Compound 17, 4'-(3-Nitrophenyl)-2,2':6',2''-terpyridine], in test [1], the fold induction at 20 µg/mL stood at 1 and the fold induction at 100 µg/mL came to 2.8.

Take `OCCOc1ccc(-c2cc(-c3ccccn3)nc(-c3ccccn3)c2)cc1` [Compound 15, 2-[4-(2,2':6',2''-Terpyridin-4'-yl)phenoxy]ethanol]: in test [1], the fold induction at 20 µg/mL stood at 1.7 and the fold induction at 100 µg/mL came to 4.2.

In the case of `Oc1ccccc1-c1cc(-c2ccccn2)nc(-c2ccccn2)c1` [Compound 12, 2-(2,2':6',2''-Terpyridin-4'-yl)phenol], in test [1], the fold induction at 20 µg/mL amounted to 3.7 and the fold induction at 100 µg/mL was 3.

Turning to `COc1ccc(-c2cc(-c3ccccn3)nc(-c3ccccn3)c2)cc1` [Compound 13, 4'-(4-Methoxyphenyl)-2,2':6',2''-terpyridine], the fold induction at 20 µg/mL in test [1] was 1.7. The fold induction at 100 µg/mL in test [1] worked out at 1.8. Further, the figures for the viability at 2 µg/mL in test [2] (setting [3]) and in test [2] (setting [4]) were 180% and 70%, respectively.

`Clc1ccc(-c2cc(-c3ccccn3)nc(-c3ccccn3)c2)cc1` [Compound 11, 4'-(4-Chlorophenyl)-2,2':6',2''-terpyridine]: in test [1], the fold induction at 5 µg/mL worked out at 4.7 and the fold induction at 50 µg/mL was determined as 2.2. Further, in test [1] (17 µg/ml), the fold induction at 17 µg/mL was 3.4. In addition, in test [2] (setting [3]), the viability at 2 µg/mL came to 170% and the viability at 10 µg/mL was determined as 130%. Besides, in test [2] (setting [4]), the viability at 2 µg/mL is 160% and the viability at 10 µg/mL came out at 140%.

In the case of `O=C(O)c1ccc(-c2cc(-c3ccccn3)nc(-c3ccccn3)c2)cc1` [Compound 19, 4-(2,2':6',2''-Terpyridin-4'-yl)benzoic acid], in test [1], the fold induction at 2 µg/mL amounted to 2.4, the fold induction at 10 µg/mL worked out at 2.4 and the fold induction at 50 µg/mL was found to be 3.6.

Consider `Cc1cccc(-c2cc(-c3ccccn3)nc(-c3ccccn3)c2)c1` [Compound 4, 4'-(3-Methylphenyl)-2,2':6',2''-terpyridine], for which, in test [1], the fold induction at 2 µg/mL was found to be 1.8, the fold induction at 10 µg/mL was 1.3 and the fold induction at 50 µg/mL stood at 1.2. For the same molecule, in test [2] (setting [3]), the viability at 2 µg/mL worked out at 170%. The viability at 2 µg/mL in test [2] (setting [4]) came out at 180%.

For `c1ccc(-c2cc(-c3ccccn3)nc(-c3ccccn3)c2)cc1` [Compound 2, 4'-Phenyl-2,2':6',2''-terpyridine], in test [1], the fold induction at 20 µg/mL turned out to be 2.6 and the fold induction at 100 µg/mL is 2.2. Also, in test [2] (setting [3]), the viability at 2 µg/mL came out at 180% and the viability at 10 µg/mL amounted to 130%. In test [2] (setting [4]), the viability at 2 µg/mL worked out at 170% and the viability at 10 µg/mL stood at 50%.

Consider `BrCc1ccc(-c2cc(-c3ccccn3)nc(-c3ccccn3)c2)cc1` [Compound 21, 4'-(4-Bromomethylphenyl)-2,2':6',2''-terpyridine], for which the fold induction at 20 µg/mL in test [1] was found to be 2.7. Besides, the fold induction at 100 µg/mL in test [1] was found to be 5.2. In addition, the viability at 2 µg/mL in test [2] (setting [3]) is 140%; in test [2] (setting [4]), 200%.

Turning to `c1ccc(-c2cccc(-c3ccccn3)n2)nc1` [Compound 1], the fold induction at 1 µg/mL in test [1] (1 µg/ml) came to 2.3. Also, the fold induction at 5 µg/mL in test [1] came to 3.5. Moreover, in test [2] (setting [3]), the viability at 2 µg/mL was found to be 270% and the viability at 10 µg/mL was found to be 320%. Moreover, in test [2] (setting [4]), the viability at 2 µg/mL is 140% and the viability at 10 µg/mL was found to be 220%.

With `CCc1ccc(-c2cc(-c3ccccn3)nc(-c3ccccn3)c2)cc1` [Compound 7, 4'-(4-Ethylphenyl)-2,2':6',2''-terpyridine], in test [1], the fold induction at 2 µg/mL was determined as 2.9, the fold induction at 10 µg/mL was 1 and the fold induction at 50 µg/mL turned out to be 1.2.

Consider `c1cc[n+](Cc2ccc(-c3cc(-c4ccccn4)nc(-c4ccccn4)c3)cc2)cc1` [Compound 25, 1-[4-(2,2':6',2''-Terpyridin-4'-yl)phenylmethyl]pyridinium bromide], for which, in test [1], the fold induction at 2 µg/mL was determined as 1.2, the fold induction at 10 µg/mL is 1.1 and the fold induction at 50 µg/mL amounted to 2.9. Moreover, in test [2] (setting [3]), the viability at 2 µg/mL came out at 140%. In addition, in test [2] (setting [4]), the viability at 2 µg/mL was found to be 110%.

As to `CCOc1ccc(-c2cc(-c3ccccn3)nc(-c3ccccn3)c2)cc1` [Compound 14, 4'-(4-Ethoxyphenyl)-2,2':6',2''-terpyridine], in test [1], the fold induction at 2 µg/mL worked out at 2.1, the fold induction at 10 µg/mL is 4.8 and the fold induction at 50 µg/mL was found to be 2.9.

As to `CCCCCCCCCCCCCCCCCc1cc[n+](Cc2ccc(-c3cc(-c4ccccn4)nc(-c4ccccn4)c3)cc2)cc1` [Compound 27, 4-Heptadecyl-1-[4-(2,2':6',2''-terpyridin-4'-yl)phenylmethyl]pyridinium bromide], in test [1], the fold induction at 20 µg/mL worked out at 1 and the fold induction at 100 µg/mL came out at 1.2. Also, in test [2] (setting [3]), the viability at 2 µg/mL was determined as 200% and the viability at 10 µg/mL was 190%. Further, in test [2] (setting [4]), the viability at 2 µg/mL was determined as 150% and the viability at 10 µg/mL amounted to 200%.

Consider `c1ccc(-c2cc(-c3ccc(Cn4cccc4)cc3)cc(-c3ccccn3)n2)nc1` [Compound 22, 4'-[4-(1-pyrrorylmethyl)phenyl]-2,2':6',2''-terpyridine], for which, in test [1], the fold induction at 2 µg/mL worked out at 1.7 and the fold induction at 10 µg/mL is 1.1. For the same molecule, in test [2] (setting [3]), the viability at 2 µg/mL was 120% and the viability at 10 µg/mL turned out to be 170%. Further, in test [2] (setting [4]), the viability at 2 µg/mL came out at 100% and the viability at 10 µg/mL stood at 180%.

(Values after patent EP0677293A1, “PHARMACEUTICAL USE OF TERPYRIDINE DERIVATIVE” (priority 1992, dated 1994).)
